Assay results reported in PMC2709242 (Molecular cell, 2009).

Tests used:
[1] = test system: K63-linked diUb (K63-Ub2); experiment: Fluorescence anisotropy binding to K63-linked diUb
[2] = test system: K63-Ub4; experiment: Fluorescence anisotropy binding to K63-linked tetraUb; details: ratio of Kd values, solution-state measurements

Molecule | linkage selectivity for diUb (K63-Ub2 vs K48-Ub2), in words [1] | K63-Ub2 binding affinity, in words ([1]; compared with other tUIM peptides) | preference for K63-Ub4 over K48-Ub4 [2] [fold]
REVNSQEREVNSQE: Rap80 tUIM peptide with linker between UIMs extended to 14 residues | very little selectivity | substantially more weakly | –
Rap80 (residues 1 - 233): soluble fragment of Rap80 longer than the minimal tUIMs (protein, UniProt Q96RL1 1-233, looked up, fragment) MPRRKKKVKEVSESRNLEKKDVETTSSVSVKRKRRLEDAFIVISDSDGEEPKEENGLQKTKTKQSNRAKCLAKRKIAQMTEEEQFALALKMSEQEAREVNSQEEEEEELLRKAIAESLNSCRPSDASATRSRPLATGPSSQSHQEKTTDSGLTEGIWQLVPPSLFKGSHISQGNEAEEREEPWDHTEKTEEEPVSGSSGSWDQSSQPVFENVNVKSFDRCTGHSAEHTQCGKP | – | – | 7
